Measurements taken from paper PMC3204975, “A Photolyase-Like Protein from Agrobacterium tumefaciens with an Iron-Sulfur Cluster” (PLoS ONE, 2011).

How the values were obtained:
PhrB = target: T1, PhrB (Agrobacterium fabrum, UniProt A9CH39); experiment: UV-vis absorption and blue-light photoreduction of co-purified cofactor; type: binding; conditions: co-purified from E. coli; 24 h dark, then 470 nm and 405 nm light with 20 mM DTT, pH 7.8, 4°C
T1 construct: full gene (1524 bp, 507 residues), C-terminal 6xHis-tag (pET-21b), expressed in E. coli ER2566, tag not reported cut
T1 sequence (A9CH39 whole entry): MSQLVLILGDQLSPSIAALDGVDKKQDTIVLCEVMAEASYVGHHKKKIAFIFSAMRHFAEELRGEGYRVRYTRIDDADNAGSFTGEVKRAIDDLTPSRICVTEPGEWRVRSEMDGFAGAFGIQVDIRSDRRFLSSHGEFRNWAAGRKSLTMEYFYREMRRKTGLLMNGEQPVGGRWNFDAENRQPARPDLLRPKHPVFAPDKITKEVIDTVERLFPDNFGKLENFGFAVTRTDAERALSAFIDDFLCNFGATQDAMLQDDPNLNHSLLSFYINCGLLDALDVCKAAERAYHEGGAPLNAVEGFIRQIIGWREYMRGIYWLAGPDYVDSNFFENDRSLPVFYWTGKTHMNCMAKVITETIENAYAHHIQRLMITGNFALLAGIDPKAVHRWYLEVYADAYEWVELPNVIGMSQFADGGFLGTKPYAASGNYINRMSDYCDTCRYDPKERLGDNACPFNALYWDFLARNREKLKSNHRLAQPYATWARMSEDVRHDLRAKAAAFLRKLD

PhrA = target: T2, PhrA (Agrobacterium fabrum, UniProt A9CJC9); experiment: as above; type: binding; conditions: co-purified from E. coli; 24 h dark, then 470 nm light with 10 mM DTT, pH 7.8, 4°C
T2 construct: full gene, N-terminal His6-tag (pQE30UA), expressed in E. coli XL1 blue, tag not reported cut
T2 sequence (A9CJC9 1-479): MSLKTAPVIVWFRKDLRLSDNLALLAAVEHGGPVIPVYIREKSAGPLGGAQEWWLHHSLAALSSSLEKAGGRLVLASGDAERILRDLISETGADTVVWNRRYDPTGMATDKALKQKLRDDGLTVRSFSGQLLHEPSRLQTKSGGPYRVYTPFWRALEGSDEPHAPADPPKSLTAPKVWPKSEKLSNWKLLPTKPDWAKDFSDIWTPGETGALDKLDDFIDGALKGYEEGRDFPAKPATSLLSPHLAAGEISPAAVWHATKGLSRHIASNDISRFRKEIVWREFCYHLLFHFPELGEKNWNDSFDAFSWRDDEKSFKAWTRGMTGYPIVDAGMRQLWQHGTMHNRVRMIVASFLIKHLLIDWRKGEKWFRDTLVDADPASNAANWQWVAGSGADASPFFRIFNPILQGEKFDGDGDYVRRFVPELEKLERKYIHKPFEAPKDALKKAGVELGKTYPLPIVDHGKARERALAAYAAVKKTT

## Cc1cc2nc3c(=O)[nH]c(=O)nc-3n(C[C@H](O)[C@H](O)[C@H](O)COP(=O)(O)OP(=O)(O)OC[C@H]3O[C@@H](n4cnc5c(N)ncnc54)[C@H](O)[C@@H]3O)c2cc1C [FAD]
PhrB
  UV-vis absorption and blue-light photoreduction of co-purified cofactor: the FAD cofactor in PhrB is photoreduced to the fully reduced FAD state
PhrA
  UV-vis absorption and blue-light photoreduction of co-purified cofactor: a nearly stoichiometric ratio of both cofactors to the PhrA apoprotein was determined
